We go through five compounds from US20260274892A1, “MACROCYCLIC BROAD SPECTRUM ANTIBIOTICS” (RQx Pharmaceuticals, Inc., priority 2017, published 2026).

In experiment [1] the test system is Escherichia coli ATCC 25922. Kind of experiment: Minimum inhibitory concentration (MIC), CLSI broth micro-dilution, E. coli. The conditions noted are these: Escherichia coli. The class given is cell-based. In short, it runs like this:
(§1)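 Colonies grown 20 h at 35° C on Trypticase Soy agar (MRSA) or Luria agar (E. coli) were suspended in cation-adjusted Mueller Hinton broth with 0.002% Tween-80. Suspensions were added at OD600 0.0005 to 10-point twofold compound dilutions, then incubated 22 h at 35° C.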

Experiment [2] concerns Methicillin Resistant Staphylococcus aureus strain USA 200. The experiment in a line: Minimum inhibitory concentration (MIC), CLSI broth micro-dilution, S. aureus. The class given is cell-based. The conditions noted are these: Staphylococcus aureus, MRSA / USA200; Table 6; MRSA USA 200; cation adjusted Mueller Hinton Broth + 0.002% Tween-80; 35° C., 22 hours. In short, it runs like this:
as §1

Where [3] appears, read: ATCC25922, 22 h, Table 6, cation adjusted Mueller Hinton Broth + 0.002% Tween-80, 35° C.

Structures are written as SMILES.

As to `Cc1nc(-c2ccc(C3CCCC3)cc2)ncc1C(=O)N[C@@H](CCN)C(=O)N(C)[C@@H]1C(=O)N[C@@H](C)C(=O)N[C@H](C(=O)NCC#N)Cc2ccc(OCCN)c(c2)-c2cc1ccc2OCCN` (racemic) [Compound 230, rac-(8S,11S,14S)-3,18-bis(2-aminoethoxy)-N-(cyanomethyl)-11-methyl-14-[methyl-[rac-(2S)-4-amino-2-[[2-(4-cyclopentylphenyl)-4-methyl-pyrimidine-5-carbonyl]amino]butanoyl]amino]-10,13-dioxo-9,12-diazatricyclo[13.3.1.12,6]icosa-1(18),2(20),3,5,15(19),16-hexaene-8-carboxamide], the MIC was determined as 0.066 µM in experiment [1] (setting [3]) and 0.012 µM in experiment [2].
The like results for `C[C@@H]1NC(=O)[C@@H](N(C)C(=O)[C@H](CCN)NC(=O)c2c(N)nc(-c3ccc(C(C)(C)C)cc3)nc2N)c2ccc(OCCN)c(c2)-c2cc(ccc2OCCN)C[C@@H](C(=O)NCC#N)NC1=O` (racemic) [Compound 429, rac-(8S,11S,14S)-3,18-bis(2-aminoethoxy)-N-(cyanomethyl)-11-methyl-14-[methyl-[rac-(2S)-4-amino-2-[[4,6-diamino-2-(4-tert-butylphenyl)pyrimidine-5-carbonyl]amino]butanoyl]amino]-10,13-dioxo-9,12-diazatricyclo[13.3.1.12,6]icosa-1(18),2(20),3,5,15(19),16-hexaene-8-carboxamide] were, in that order, 1 µM and 0.023 µM.
On to `COCCOc1ccc(-c2nc(C)c(C(=O)N[C@@H](CCN)C(=O)N(C)[C@@H]3C(=O)N[C@@H](C)C(=O)N[C@H](C(=O)NCC#N)Cc4ccc(OCCN)c(c4)-c4cc3ccc4OCCN)c(C)n2)cc1` (racemic) [Compound 333, rac-(8S,11S,14S)-3,18-bis(2-aminoethoxy)-N-(cyanomethyl)-11-methyl-14-[methyl-[rac-(2S)-4-amino-2-[[2-[4-(2-methoxyethoxy)phenyl]-4,6-dimethyl-pyrimidine-5-carbonyl]amino]butanoyl]amino]-10,13-dioxo-9,12-diazatricyclo[13.3.1.12,6]icosa-1(18),2(20),3,5,15(19),16-hexaene-8-carboxamide], for which the MIC in experiment [1] (ATCC25922, Table 6, cation adjusted Mueller Hinton Broth + 0.002% Tween-80, 35° C., 22 hours) is 2 µM; in experiment [2] it was 1 µM.
As for `Cc1cc(-c2ccc(OCC(C)(C)C)cc2)nc(C)c1C(=O)N[C@@H](CCN)C(=O)N(C)[C@@H]1C(=O)N[C@@H](C)C(=O)N[C@H](C(=O)NCC#N)Cc2ccc(OCCN)c(c2)-c2cc1ccc2OCCN` (racemic) [Compound 359, rac-(8S,11S,14S)-3,18-bis(2-aminoethoxy)-N-(cyanomethyl)-11-methyl-14-[methyl-[rac-(2S)-4-amino-2-[[6-[4-(2,2-dimethylpropoxy)phenyl]-2,4-dimethyl-pyridine-3-carbonyl]amino]butanoyl]amino]-10,13-dioxo-9,12-diazatricyclo[13.3.1.12,6]icosa-1(18),2(20),3,5,15(19),16-hexaene-8-carboxamide], the MIC in experiment [1] (setting [3]) was determined as 0.064 µM; in experiment [2], 0.008 µM.
The like results for `Cc1nc(-c2ccc(CCC(C)C)cc2)ncc1C(=O)N[C@@H](CCN)C(=O)N(C)[C@@H]1C(=O)N[C@@H](C)C(=O)N[C@H](C(=O)NCC#N)Cc2ccc(OCCN)c(c2)-c2cc1ccc2OCCN` (racemic) [Compound 220, rac-(8S,11S,14S)-3,18-bis(2-aminoethoxy)-N-(cyanomethyl)-11-methyl-14-[methyl-[rac-(2S)-4-amino-2-[[2-(4-isopentylphenyl)-4-methyl-pyrimidine-5-carbonyl]amino]butanoyl]amino]-10,13-dioxo-9,12-diazatricyclo[13.3.1.12,6]icosa-1(18),2(20),3,5,15(19),16-hexaene-8-carboxamide] were, in that order, 0.099 µM and 0.0062 µM.
